Data reported in paper PMC6797481, “Identification of an allosteric binding site on the human glycine transporter, GlyT2, for bioactive lipid analgesics” (eLife, 2019).
Positions count from the first letter of the chain named.

Key:
Format in all cases: cell-based
[1] = molecular target: T1, GlyT2 L569F mutant (Homo sapiens, UniProt Q9Y345, L569F); test: Glycine transport currents, two electrode voltage clamp, oocytes expressing GlyT2 L569F; conditions: for % Max. inhibition: mean ± SEM
T1 construct: expressed in transfected cells; host or cells: Xenopus laevis oocytes (cRNA injection)
T1 sequence (Q9Y345 1-797 L569F): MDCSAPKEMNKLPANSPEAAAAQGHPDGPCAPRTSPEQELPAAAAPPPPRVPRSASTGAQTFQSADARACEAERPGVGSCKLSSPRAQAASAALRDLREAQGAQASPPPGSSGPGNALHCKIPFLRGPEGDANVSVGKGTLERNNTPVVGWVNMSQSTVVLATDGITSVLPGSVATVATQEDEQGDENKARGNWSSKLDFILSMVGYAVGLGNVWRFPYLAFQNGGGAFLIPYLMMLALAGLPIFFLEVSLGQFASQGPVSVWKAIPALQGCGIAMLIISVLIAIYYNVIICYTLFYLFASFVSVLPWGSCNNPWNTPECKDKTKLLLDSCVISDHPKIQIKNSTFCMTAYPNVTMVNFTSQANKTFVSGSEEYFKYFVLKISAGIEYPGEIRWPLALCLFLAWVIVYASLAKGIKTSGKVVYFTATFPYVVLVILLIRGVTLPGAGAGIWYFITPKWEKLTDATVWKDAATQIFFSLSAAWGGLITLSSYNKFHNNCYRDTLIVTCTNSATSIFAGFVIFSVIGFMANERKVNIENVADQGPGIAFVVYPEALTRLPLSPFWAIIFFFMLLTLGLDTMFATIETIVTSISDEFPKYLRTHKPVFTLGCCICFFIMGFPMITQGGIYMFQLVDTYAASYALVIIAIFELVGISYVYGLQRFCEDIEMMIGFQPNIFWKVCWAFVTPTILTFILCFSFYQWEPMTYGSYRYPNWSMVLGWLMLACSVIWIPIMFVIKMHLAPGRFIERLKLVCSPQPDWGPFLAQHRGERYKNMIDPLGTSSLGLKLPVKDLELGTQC
Procedure: (§1) Glycine was first applied to establish maximal transport current.
(§2) Compounds were tested for inhibition of glycine transport on Xenopus laevis oocytes expressing mutant GlyT1 and GlyT2 transporters. n values are in brackets, with measurements taken from at least 2 batches of oocytes.

[2] = molecular target: T2, GlyT2 F428A mutant (Homo sapiens, UniProt Q9Y345, F428A); test: Glycine transport currents, two electrode voltage clamp, oocytes expressing GlyT2 F428A; conditions: for % Max. inhibition (% inhibition at the highest concentration of inhibitor used): footnote b
T2 construct: expressed in transfected cells; host or cells: Xenopus laevis oocytes (cRNA injection)
T2 sequence (Q9Y345 1-797 F428A): T1 sequence (Q9Y345 1-797 L569F) with F428A, F569L
Procedure: as §1, §2

[3] = molecular target: T3, GlyT2 I545L mutant (Homo sapiens, UniProt Q9Y345, I545L); test: Glycine transport currents, two electrode voltage clamp, Xenopus laevis oocytes expressing GlyT2 I545L; conditions: for % Max. inhibition: mean ± SEM
T3 construct: expressed in transfected cells; host or cells: Xenopus laevis oocytes (cRNA injection)
T3 sequence (Q9Y345 1-797 I545L): T1 sequence (Q9Y345 1-797 L569F) with I545L, F569L
Procedure: as §1, §2

[4] = GlyT2 I545L, greater than maximum concentration applied (footnote a)

Compound	IC50 ([1]; GlyT2 L569F, mean (95% CI))	% Max. inhibition ([1]; GlyT2 L569F)	% Max. inhibition (% inhibition at the highest concentration of inhibitor used) ([2]; GlyT2 F428A)	IC50 [3, 4]	% Max. inhibition ([3]; GlyT2 I545L)	IC50 ([2]; GlyT2 F428A)	also measured
CCCCC/C=C\C/C=C\C/C=C\C/C=C\CCCC(=O)NCC(=O)O [N-arachidonyl Glycine, reference compound]	3590 nM	63.7 ± 19.0 (p=0.9990) %	64.7 ± 6.6^b (p=0.9998) %	–	–	–	IC50 ([2]; GlyT2 F428A, mean (95% CI)): 14.4 µM
NCC(=O)O [Glycine]	–	–	–	–	–	–	EC50 ([1]; glycine transport, GlyT2 L569F (TM8)): 7 ± 0.6 µM; EC50 ([2]; glycine transport, GlyT2 F428A (TM5)): 6.2 ± 0.4 µM
CCCCCCCC/C=C\CCCCCCCC(=O)N[C@@H](CC(=O)O)C(=O)O [oleoyl l-Aspartate]	–	–	–	> 10 µM	4.9 ± 6.4 (p=0.0001) %	–	–
CCCCCCCC/C=C\CCCCCCCC(=O)NCC(=O)O [N-oleoyl Glycine, reference compound]	–	32.5 ± 3.6 (p=0.0005) %	–	–	–	> 10 µM	IC50 ([1]; GlyT2 L569F, greater than maximum concentration applied (footnote a)): > 10000 nM; % Max. inhibition ([2]; GlyT2 F428A, mean ± SEM): 25.4 ± 4.9 (p=0.0001) %
CCCCCCCC/C=C\CCCCCCCC(=O)O[C@H](CC(=O)[O-])C[N+](C)(C)C [oleoyl L-Carnitine, reference compound]	1200 nM	–	22.7 ± 3.0^b (p=0.0001) %	–	–	> 3 µM	% Max. inhibition (% inhibition at the highest concentration of inhibitor used) ([1]; GlyT2 L569F, footnote b): 45.5 ± 7.0^b (p=0.0038) %
CCCCCCCC/C=C\CCCCCCCC(=O)N[C@@H](Cc1c[nH]c2ccccc12)C(=O)O [oleoyl l-Tryptophan]	–	–	–	> 10 µM	20.2 ± 1.7 (p=0.0001) %	–	–
CCCCCCCC/C=C\CCCCCCCC(=O)N[C@H](C(=O)O)C(C)C [oleoyl l-Valine]	–	–	–	> 10 µM	–	–	% Max. inhibition (% inhibition at the highest concentration of inhibitor used) ([3]; GlyT2 I545L, footnote b): 22.5 ± 8.0^b (p=0.0001) %
CCCCCCCC/C=C\CCCCCCCC(=O)N[C@@H](CCCCN)C(=O)O [oleoyl l-Lysine]	301 nM	76.8 ± 5.8 (p=0.4504) %	39.2 ± 2.3^b (p=0.0001) %	–	80.7%	> 3 µM	fold lower potency at I545L ([3]; GlyT2 I545L compared with WT GlyT2): ~ 17 fold; IC50 ([3]; GlyT2 I545L, mean (95% CI)): 0.443 µM
